Assay results from paper PMC10408569, “Recruitment of hexahydroquinoline as anticancer scaffold targeting inhibition of wild and mutants EGFR (EGFR^WT, EGFR^T790M, and EGFR^L858R)” (Journal of Enzyme Inhibition and Medicinal Chemistry, 2023).

Columns and labels:
SK-MEL-2 = assay: NCI-60 anticancer screening (SRB); type: cell-based; conditions: Homo sapiens; SK-MEL-2, melanoma; one dose 10 μM; read-out: Growth Inhibition Percentage (GI %)
NCI-H522 = assay: NCI-60 anticancer screening (SRB); type: cell-based; conditions: Homo sapiens; NCI-H522, NSC lung cancer; one dose 10 μM; read-out: Growth Inhibition Percentage (GI %)
HOP-92 = assay: NCI-60 anticancer screening (SRB); type: cell-based; conditions: Homo sapiens; HOP-92, NSC lung cancer; one dose 10 μM; read-out: Growth Inhibition Percentage (GI %)
M14 = assay: NCI-60 anticancer screening (SRB); type: cell-based; conditions: Homo sapiens; M14, melanoma; one dose 10 μM; read-out: Growth Inhibition Percentage (GI %)
LOX IMVI = assay: NCI-60 anticancer screening (SRB); type: cell-based; conditions: Homo sapiens, melanoma, one dose 10 μM, read-out: Growth Inhibition Percentage (GI %)
SF-539 = assay: NCI-60 anticancer screening (SRB); type: cell-based; conditions: Homo sapiens; SF-539, CNS cancer; one dose 10 μM; read-out: Growth Inhibition Percentage (GI %)
786-0 = assay: NCI-60 anticancer screening (SRB); type: cell-based; conditions: Homo sapiens; 786-0, renal cancer; one dose 10 μM; read-out: Growth Inhibition Percentage (GI %)
SF-268 = assay: NCI-60 anticancer screening (SRB); type: cell-based; conditions: Homo sapiens; SF-268, CNS cancer; one dose 10 μM; read-out: Growth Inhibition Percentage (GI %)
MALME-3M = assay: NCI-60 anticancer screening (SRB); type: cell-based; conditions: Homo sapiens, melanoma, one dose 10 μM, read-out: Growth Inhibition Percentage (GI %)
ACHN = assay: NCI-60 anticancer screening (SRB); type: cell-based; conditions: Homo sapiens, renal cancer, one dose 10 μM, read-out: Growth Inhibition Percentage (GI %)
K-562 = assay: NCI-60 anticancer screening (SRB); type: cell-based; conditions: Homo sapiens, K562; K-562, leukemia; one dose 10 μM; read-out: Growth Inhibition Percentage (GI %)
OVCAR-5 = assay: NCI-60 anticancer screening (SRB); type: cell-based; conditions: Homo sapiens; OVCAR-5, ovarian cancer; one dose 10 μM; read-out: Growth Inhibition Percentage (GI %)
DU-145 = assay: NCI-60 anticancer screening (SRB); type: cell-based; conditions: Homo sapiens; DU-145, prostate cancer; one dose 10 μM; read-out: Growth Inhibition Percentage (GI %)
NCI-H226 = assay: NCI-60 anticancer screening (SRB); type: cell-based; conditions: Homo sapiens; NCI-H226, NSC lung cancer; one dose 10 μM; read-out: Growth Inhibition Percentage (GI %)
NCI-H460 = assay: NCI-60 anticancer screening (SRB); type: cell-based; conditions: Homo sapiens; NCI-H460, NSC lung cancer; one dose 10 μM; read-out: Growth Inhibition Percentage (GI %)
A498 = assay: NCI-60 anticancer screening (SRB); type: cell-based; conditions: Homo sapiens; A498, renal cancer; one dose 10 μM; read-out: Growth Inhibition Percentage (GI %)
HT29 = assay: NCI-60 anticancer screening (SRB); type: cell-based; conditions: Homo sapiens, HT-29; HT29, colon cancer; one dose 10 μM; read-out: Growth Inhibition Percentage (GI %)
SF-295 = assay: NCI-60 anticancer screening (SRB); type: cell-based; conditions: Homo sapiens; SF-295, CNS cancer; one dose 10 μM; read-out: Growth Inhibition Percentage (GI %)
HOP-62 = assay: NCI-60 anticancer screening (SRB); type: cell-based; conditions: Homo sapiens; HOP-62, NSC lung cancer; one dose 10 μM; read-out: Growth Inhibition Percentage (GI %)
SN 12C = assay: NCI-60 anticancer screening (SRB); type: cell-based; conditions: Homo sapiens, SN12C; SN 12C, renal cancer; one dose 10 μM; read-out: Growth Inhibition Percentage (GI %)
T-47D = assay: NCI-60 anticancer screening (SRB); type: cell-based; conditions: Homo sapiens, T47D, breast cancer, one dose 10 μM, read-out: Growth Inhibition Percentage (GI %)
UACC-257 = assay: NCI-60 anticancer screening (SRB); type: cell-based; conditions: Homo sapiens; UACC-257, melanoma; one dose 10 μM; read-out: Growth Inhibition Percentage (GI %)
RPMI-8226 = assay: NCI-60 anticancer screening (SRB); type: cell-based; conditions: Homo sapiens; RPMI-8226, leukemia; one dose 10 μM; read-out: Growth Inhibition Percentage (GI %)
SR = assay: NCI-60 anticancer screening (SRB); type: cell-based; conditions: Homo sapiens, leukemia, one dose 10 μM, read-out: Growth Inhibition Percentage (GI %)
CAKI-1 = assay: NCI-60 anticancer screening (SRB); type: cell-based; conditions: Homo sapiens; CAKI-1, renal cancer; one dose 10 μM; read-out: Growth Inhibition Percentage (GI %)
SNB-75 = assay: NCI-60 anticancer screening (SRB); type: cell-based; conditions: Homo sapiens; SNB-75, CNS cancer; one dose 10 μM; read-out: Growth Inhibition Percentage (GI %)
HCT-116 = assay: NCI-60 anticancer screening (SRB); type: cell-based; conditions: Homo sapiens; HCT-116, colon cancer; one dose 10 μM; read-out: Growth Inhibition Percentage (GI %)
SNB-19 = assay: NCI-60 anticancer screening (SRB); type: cell-based; conditions: Homo sapiens; SNB-19, CNS cancer; one dose 10 μM; read-out: Growth Inhibition Percentage (GI %)
IGROV1 = assay: NCI-60 anticancer screening (SRB); type: cell-based; conditions: Homo sapiens, IGROV-1; IGROV1, ovarian cancer; one dose 10 μM; read-out: Growth Inhibition Percentage (GI %)
U251 = assay: NCI-60 anticancer screening (SRB); type: cell-based; conditions: Homo sapiens, U-251; U251, CNS cancer; one dose 10 μM; read-out: Growth Inhibition Percentage (GI %)
SK-MEL-5 = assay: NCI-60 anticancer screening (SRB); type: cell-based; conditions: Homo sapiens; SK-MEL-5, melanoma; one dose 10 μM; read-out: Growth Inhibition Percentage (GI %)
EKVX = assay: NCI-60 anticancer screening (SRB); type: cell-based; conditions: Homo sapiens, NSC lung cancer, one dose 10 μM, read-out: Growth Inhibition Percentage (GI %)

SMILES | inhibition at 10 µM (SK-MEL-2) | inhibition at 10 µM (NCI-H522) | inhibition at 10 µM (HOP-92) | inhibition at 10 µM (M14) | inhibition at 10 µM (LOX IMVI) | inhibition at 10 µM (SF-539) | inhibition at 10 µM (786-0) | inhibition at 10 µM (SF-268) | inhibition at 10 µM (MALME-3M) | inhibition at 10 µM (ACHN) | inhibition at 10 µM (K-562) | inhibition at 10 µM (OVCAR-5) | melting point | inhibition at 10 µM (DU-145) | inhibition at 10 µM (NCI-H226) | inhibition at 10 µM (NCI-H460) | inhibition at 10 µM (A498) | inhibition at 10 µM (HT29) | inhibition at 10 µM (SF-295) | inhibition at 10 µM (HOP-62) | further results
CCOC(=O)C1=C(N)N(c2ccc(Cl)cc2)C2=C(C(=O)CC(C)(C)C2)C1c1ccc(Cl)cc1 (racemic) [8e, (±)-Ethyl 2-amino-1,4-bis (4-chlorophenyl)-7,7-dimethyl-5-oxo-1,4,5,6,7,8-hexahydroquinoline-3-carboxylate] | < 10% | 19% | < 10% | 49% | 11% | 26% | 23% | 22% | 39% | 32% | 63% | < 10% | 220 to 222 °C | 12% | < 10% | 59% | < 10% | 46% | 33% | < 10% | inhibition at 10 µM (SN 12C): < 10%; inhibition at 10 µM (T-47D): 42%; inhibition at 10 µM (UACC-257): 56%; inhibition at 10 µM (RPMI-8226): 90%; inhibition at 10 µM (SR): 52%; inhibition at 10 µM (CAKI-1): 19%; inhibition at 10 µM (SNB-75): 27%; inhibition at 10 µM (HCT-116): 45%; inhibition at 10 µM (SNB-19): 31%; inhibition at 10 µM (IGROV1): 12%; inhibition at 10 µM (U251): 31%; inhibition at 10 µM (SK-MEL-5): 46%; inhibition at 10 µM (EKVX): 33%
CCOC(=O)C1=C(N)N(c2ccccc2)C2=C(C(=O)CC(C)(C)C2)C1c1ccccc1Br (racemic) [6d, (±)-Ethyl 2-amino-4–(2-bromophenyl)-7,7-dimethyl-5-oxo-1-phenyl-1,4,5,6,7,8-hexahydroquinoline-3-carboxylate] | 23% | 23% | 27% | 13% | 12% | < 10% | 13% | < 10% | < 10% | 11% | 20% | < 10% | 220 to 222 °C | < 10% | 11% | 20% | < 10% | 17% | < 10% | < 10% | inhibition at 10 µM (SN 12C): < 10%; inhibition at 10 µM (T-47D): 30%; inhibition at 10 µM (UACC-257): < 10%; inhibition at 10 µM (RPMI-8226): 35%; inhibition at 10 µM (SR): 14%; inhibition at 10 µM (CAKI-1): 36%; inhibition at 10 µM (SNB-75): 33%; inhibition at 10 µM (HCT-116): 21%; inhibition at 10 µM (SNB-19): < 10%; inhibition at 10 µM (IGROV1): < 10%; inhibition at 10 µM (U251): < 10%; inhibition at 10 µM (SK-MEL-5): < 10%; inhibition at 10 µM (EKVX): 11%
CCOC(=O)C1=C(N)N(c2ccc(Cl)cc2)C2=C(C(=O)CC(C)(C)C2)C1c1ccccc1Br (racemic) [6f, (±)-Ethyl 2-amino-4–(2-bromophenyl)-1–(4-chlorophenyl)-7,7-dimethyl-5-oxo-1,4,5,6,7,8-hexahydroquinoline-3-carboxylate] | < 10% | 43% | 13% | 24% | < 10% | < 10% | 12% | 17% | 18% | 20% | < 10% | < 10% | 210 to 212 °C | < 10% | 14% | 43% | < 10% | 44% | 18% | < 10% | inhibition at 10 µM (SN 12C): 13%; inhibition at 10 µM (T-47D): 49%; inhibition at 10 µM (UACC-257): 42%; inhibition at 10 µM (RPMI-8226): < 10%; inhibition at 10 µM (SR): < 10%; inhibition at 10 µM (CAKI-1): 32%; inhibition at 10 µM (SNB-75): 16%; inhibition at 10 µM (HCT-116): 60%; inhibition at 10 µM (SNB-19): 11%; inhibition at 10 µM (IGROV1): < 10%; inhibition at 10 µM (U251): 40%; inhibition at 10 µM (SK-MEL-5): 79%; inhibition at 10 µM (EKVX): 25%
